Test results: patent US9254274B2, “Method of treating Tourette'S disorder with GABA-aminotransferase inactivators” (CATALYST PHARMACEUTICAL PARTNERS, priority 2012, dated 2016)
Entries after “also recorded” stand apart in the source; their conditions may differ.

Legend:
[1] = system: GABAA receptor; assay: [^3H]muscimol competition binding, rat brain synaptic membranes
Experimental: On the day of the assay, the membrane preparation was quickly thawed, suspended in 40 volumes of ice-cold 50 mM Tris-HCl buffer (pH 7.4) using an UltraTurrax homogenizer and centrifuged at 48,000 g for 10 min at 4° C. This washing step was repeated four times. The final pellet was resuspended in incubation buffer and the binding assay carried out as detailed below.

[2] = system: cortical astrocytes; assay: [^3H]GABA uptake in cultured cortical astrocytes; format: cell-based, mouse
Experimental: Cortical astrocytes were cultured essentially as previously described (Hertz L, Juurlink B H J, Hertz E, Fosmark H and Schousboe A, Preparation of Primary Cultures of Mouse (Rat) Astrocytes, in A Dissection and Tissue Culture Manual of the Nervous System (Shahar A, de Vellis J, Vernadakis A and Haber B eds) pp 105-108, Alan R. Liss, Inc., New York, 1989). The neopallium was removed from new born NMRI mice (Taconic, Denmark) and passed through an 80 μm nylon sieve and cultured in modified Dulbecco's modified Eagle's medium with fetal calf serum. The calf serum was lowered from 20% to 10% over three weeks, and finally the astrocytes were allowed to differentiate using 0.25 mM dibutyryl cyclic AMP during the last week of growth.
(§1) Cortical neurons were cultured essentially as previously described by removing the neopallium of 15-day old NMRI embryos by dissection followed by mild trypsination (Hertz E, Yu A C H, Hertz L, Juurlink B H J and Schousboe A. Preparation of Primary Cultures of Mouse Cortical Neurons, in A Dissection and Tissue Culture Manual of the Nervous System (Shahar A, de Vellis J, Vernadakis A and Haber B eds) pp 183-186, Alan R. Liss, Inc., New York, 198). […] Radioactivity was measured using Microscint™ 20 scintillation fluid (PerkinElmer) and a Packard TopCount microplate scintillation counter.

[3] = system: reuptake of GABA; assay: GABA reuptake, general statement; format: cell-based
Experimental: (§2) tsA201 cells were cultured in GlutaMAX-I DMEM supplemented with 10% fetal bovine serum, penicillin (100 U/ml), and streptomycin (100 μg/ml) at 37° C. in a humidified atmosphere of 95% air and 5% CO2. […] Quantification was performed by using Microscint™ 20 scintillation fluid (Perkin Elmer) and a Packard TopCount microplate scintillation counter.
as §1, with “[…]). The neurons were cultured in 10% fetal calf serum and, after 48 h, cytosine arabinoside was added to a final concentration of 20 μM to prevent glial proliferation. […] The stable cell lines are under the selection pressure of blasticidin-S at 5 μg/mL.” for “198).”

[4] = target: T1, hGAT-3 (Homo sapiens, UniProt P48066); assay: [^3H]GABA uptake assay at human GABA transporters, tsA201 cells; format: cell-based; details: mammalian cells recombinantly expressing hGAT-3
T1 construct: expressed in transfected cells; host or cells: tsA201 cells (transient, PolyFect)
T1 sequence (P48066 1-632): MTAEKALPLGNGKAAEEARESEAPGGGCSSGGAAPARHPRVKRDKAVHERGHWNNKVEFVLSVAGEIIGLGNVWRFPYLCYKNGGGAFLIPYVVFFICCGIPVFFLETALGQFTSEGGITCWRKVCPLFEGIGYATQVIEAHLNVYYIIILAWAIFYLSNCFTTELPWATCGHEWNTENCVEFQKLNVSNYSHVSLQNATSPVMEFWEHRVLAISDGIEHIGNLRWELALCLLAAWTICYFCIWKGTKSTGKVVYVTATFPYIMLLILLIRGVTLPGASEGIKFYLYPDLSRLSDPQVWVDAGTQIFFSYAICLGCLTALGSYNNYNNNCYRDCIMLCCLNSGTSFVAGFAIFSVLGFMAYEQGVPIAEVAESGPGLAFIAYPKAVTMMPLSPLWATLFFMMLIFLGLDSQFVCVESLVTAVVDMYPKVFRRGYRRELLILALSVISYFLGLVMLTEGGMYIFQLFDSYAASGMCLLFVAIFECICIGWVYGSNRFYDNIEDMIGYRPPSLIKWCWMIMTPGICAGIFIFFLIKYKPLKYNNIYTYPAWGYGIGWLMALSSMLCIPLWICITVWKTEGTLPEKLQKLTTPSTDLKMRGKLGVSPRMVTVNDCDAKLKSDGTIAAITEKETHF
Experimental: as §2

[5] = target: T2, hBGT-1 (Homo sapiens, UniProt P48065); assay: as above; format: cell-based; details: mammalian cells recombinantly expressing hBGT-1
T2 construct: expressed in transfected cells; host or cells: tsA201 cells (transient, PolyFect)
T2 sequence (P48065 1-614): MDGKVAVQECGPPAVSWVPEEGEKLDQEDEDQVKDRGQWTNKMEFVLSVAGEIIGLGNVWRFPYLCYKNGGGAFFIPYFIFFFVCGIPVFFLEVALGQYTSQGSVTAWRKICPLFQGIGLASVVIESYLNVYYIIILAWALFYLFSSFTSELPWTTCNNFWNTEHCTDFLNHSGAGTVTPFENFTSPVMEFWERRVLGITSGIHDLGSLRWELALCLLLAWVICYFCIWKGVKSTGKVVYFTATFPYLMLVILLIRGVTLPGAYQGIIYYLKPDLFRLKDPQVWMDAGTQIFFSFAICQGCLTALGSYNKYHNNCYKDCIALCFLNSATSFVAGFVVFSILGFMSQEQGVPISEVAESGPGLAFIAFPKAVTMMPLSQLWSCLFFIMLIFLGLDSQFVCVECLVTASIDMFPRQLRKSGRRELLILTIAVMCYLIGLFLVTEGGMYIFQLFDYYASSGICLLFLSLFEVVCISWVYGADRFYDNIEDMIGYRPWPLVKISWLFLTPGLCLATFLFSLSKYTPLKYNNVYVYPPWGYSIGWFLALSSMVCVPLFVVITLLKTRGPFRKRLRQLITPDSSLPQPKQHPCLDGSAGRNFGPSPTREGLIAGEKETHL
Experimental: as §2

[6] = target: T3, hGAT-2 (Homo sapiens, UniProt Q9NSD5); assay: as above; format: cell-based; details: mammalian cells recombinantly expressing hGAT-2
T3 construct: expressed in transfected cells; host or cells: tsA201 cells (transient, PolyFect)
T3 sequence (Q9NSD5 1-602): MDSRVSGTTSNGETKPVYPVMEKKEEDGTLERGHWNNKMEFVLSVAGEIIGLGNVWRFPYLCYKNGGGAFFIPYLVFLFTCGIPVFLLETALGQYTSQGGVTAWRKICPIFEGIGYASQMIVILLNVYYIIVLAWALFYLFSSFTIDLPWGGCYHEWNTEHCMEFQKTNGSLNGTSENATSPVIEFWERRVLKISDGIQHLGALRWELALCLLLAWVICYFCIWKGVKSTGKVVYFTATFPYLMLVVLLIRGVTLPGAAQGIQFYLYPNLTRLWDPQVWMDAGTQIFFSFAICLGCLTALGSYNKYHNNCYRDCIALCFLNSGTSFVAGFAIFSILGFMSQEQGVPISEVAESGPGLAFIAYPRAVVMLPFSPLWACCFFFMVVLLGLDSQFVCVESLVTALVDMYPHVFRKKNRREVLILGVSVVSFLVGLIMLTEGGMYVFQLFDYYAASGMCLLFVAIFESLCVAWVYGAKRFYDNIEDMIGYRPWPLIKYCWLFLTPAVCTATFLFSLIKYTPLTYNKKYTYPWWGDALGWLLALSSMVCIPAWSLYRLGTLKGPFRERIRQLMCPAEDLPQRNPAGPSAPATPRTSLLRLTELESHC
Experimental: as §2

[7] = target: T4, hGAT-1 (Homo sapiens, UniProt P30531); assay: as above; format: cell-based; details: mammalian cells recombinantly expressing hGAT-1
T4 construct: expressed in transfected cells; host or cells: tsA201 cells (transient, PolyFect)
T4 sequence (P30531 whole entry): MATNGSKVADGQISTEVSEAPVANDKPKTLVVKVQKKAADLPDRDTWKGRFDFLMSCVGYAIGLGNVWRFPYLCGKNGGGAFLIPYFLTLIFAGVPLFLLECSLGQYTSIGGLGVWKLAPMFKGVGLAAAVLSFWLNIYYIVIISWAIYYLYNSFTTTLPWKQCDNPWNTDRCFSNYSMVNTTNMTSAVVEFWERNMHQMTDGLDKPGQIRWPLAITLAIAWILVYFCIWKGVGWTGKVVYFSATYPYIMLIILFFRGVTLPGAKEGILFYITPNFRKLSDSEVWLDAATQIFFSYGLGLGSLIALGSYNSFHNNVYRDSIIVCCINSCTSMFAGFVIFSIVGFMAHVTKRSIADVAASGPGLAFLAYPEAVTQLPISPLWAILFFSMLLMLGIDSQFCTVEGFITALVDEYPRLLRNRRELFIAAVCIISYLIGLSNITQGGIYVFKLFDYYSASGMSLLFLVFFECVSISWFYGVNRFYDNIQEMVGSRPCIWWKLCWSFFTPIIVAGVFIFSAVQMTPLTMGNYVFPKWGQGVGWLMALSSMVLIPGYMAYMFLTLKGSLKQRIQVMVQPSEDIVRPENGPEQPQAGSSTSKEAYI
Experimental: as §2

[8] = target: T5, human ρ1 GABAC receptors (Homo sapiens, UniProt P24046); assay: Activity at recombinant GABAC receptors expressed in oocytes; format: cell-based; details: 100 μM, hydrochloride salt
T5 construct: expressed in transfected cells; host or cells: Xenopus laevis oocytes
T5 sequence (P24046 22-479): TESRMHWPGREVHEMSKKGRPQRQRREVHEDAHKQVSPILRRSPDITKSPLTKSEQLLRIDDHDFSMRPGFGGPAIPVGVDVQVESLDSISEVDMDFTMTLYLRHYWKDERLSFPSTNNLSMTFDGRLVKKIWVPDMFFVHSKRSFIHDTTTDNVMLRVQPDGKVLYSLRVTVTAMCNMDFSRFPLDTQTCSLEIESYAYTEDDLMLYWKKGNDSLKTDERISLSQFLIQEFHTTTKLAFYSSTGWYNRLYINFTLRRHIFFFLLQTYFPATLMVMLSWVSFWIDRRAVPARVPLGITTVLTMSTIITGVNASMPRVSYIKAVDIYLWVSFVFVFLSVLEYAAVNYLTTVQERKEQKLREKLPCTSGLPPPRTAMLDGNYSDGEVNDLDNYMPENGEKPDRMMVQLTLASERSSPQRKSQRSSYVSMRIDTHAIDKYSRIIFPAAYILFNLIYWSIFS

[9] = target: T6, GABAB receptor (Rattus norvegicus, UniProt Q9Z0U4); details: 100 μM, rat brain cortical homogenate; hydrochloride salt
T6 sequence (Q9Z0U4 17-960 limits assumed): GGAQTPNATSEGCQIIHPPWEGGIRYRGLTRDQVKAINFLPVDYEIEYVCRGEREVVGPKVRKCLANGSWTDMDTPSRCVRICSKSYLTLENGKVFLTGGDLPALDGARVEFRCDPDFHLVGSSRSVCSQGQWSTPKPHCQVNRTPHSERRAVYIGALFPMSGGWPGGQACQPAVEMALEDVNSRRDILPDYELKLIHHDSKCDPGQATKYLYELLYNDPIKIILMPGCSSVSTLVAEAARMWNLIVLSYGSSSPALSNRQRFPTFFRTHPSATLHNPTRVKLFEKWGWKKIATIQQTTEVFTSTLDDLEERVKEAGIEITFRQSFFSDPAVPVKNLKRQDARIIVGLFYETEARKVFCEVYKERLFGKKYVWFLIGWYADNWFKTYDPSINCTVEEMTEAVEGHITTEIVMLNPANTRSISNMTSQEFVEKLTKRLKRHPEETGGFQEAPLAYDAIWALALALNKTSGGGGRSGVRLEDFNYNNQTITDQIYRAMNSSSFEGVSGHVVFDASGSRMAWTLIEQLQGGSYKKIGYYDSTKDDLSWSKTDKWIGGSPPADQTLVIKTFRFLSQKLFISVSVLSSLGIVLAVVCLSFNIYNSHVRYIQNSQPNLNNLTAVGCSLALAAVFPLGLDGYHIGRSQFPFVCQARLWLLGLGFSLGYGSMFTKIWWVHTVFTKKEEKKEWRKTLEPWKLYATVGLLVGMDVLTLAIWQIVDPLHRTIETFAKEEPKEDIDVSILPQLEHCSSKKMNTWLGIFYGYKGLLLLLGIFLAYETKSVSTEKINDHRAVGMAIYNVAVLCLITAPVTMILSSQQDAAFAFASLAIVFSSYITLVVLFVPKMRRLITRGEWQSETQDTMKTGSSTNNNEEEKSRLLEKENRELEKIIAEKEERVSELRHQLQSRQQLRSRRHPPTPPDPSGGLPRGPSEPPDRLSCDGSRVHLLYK
T6 sequence (O88871 41-940 partner): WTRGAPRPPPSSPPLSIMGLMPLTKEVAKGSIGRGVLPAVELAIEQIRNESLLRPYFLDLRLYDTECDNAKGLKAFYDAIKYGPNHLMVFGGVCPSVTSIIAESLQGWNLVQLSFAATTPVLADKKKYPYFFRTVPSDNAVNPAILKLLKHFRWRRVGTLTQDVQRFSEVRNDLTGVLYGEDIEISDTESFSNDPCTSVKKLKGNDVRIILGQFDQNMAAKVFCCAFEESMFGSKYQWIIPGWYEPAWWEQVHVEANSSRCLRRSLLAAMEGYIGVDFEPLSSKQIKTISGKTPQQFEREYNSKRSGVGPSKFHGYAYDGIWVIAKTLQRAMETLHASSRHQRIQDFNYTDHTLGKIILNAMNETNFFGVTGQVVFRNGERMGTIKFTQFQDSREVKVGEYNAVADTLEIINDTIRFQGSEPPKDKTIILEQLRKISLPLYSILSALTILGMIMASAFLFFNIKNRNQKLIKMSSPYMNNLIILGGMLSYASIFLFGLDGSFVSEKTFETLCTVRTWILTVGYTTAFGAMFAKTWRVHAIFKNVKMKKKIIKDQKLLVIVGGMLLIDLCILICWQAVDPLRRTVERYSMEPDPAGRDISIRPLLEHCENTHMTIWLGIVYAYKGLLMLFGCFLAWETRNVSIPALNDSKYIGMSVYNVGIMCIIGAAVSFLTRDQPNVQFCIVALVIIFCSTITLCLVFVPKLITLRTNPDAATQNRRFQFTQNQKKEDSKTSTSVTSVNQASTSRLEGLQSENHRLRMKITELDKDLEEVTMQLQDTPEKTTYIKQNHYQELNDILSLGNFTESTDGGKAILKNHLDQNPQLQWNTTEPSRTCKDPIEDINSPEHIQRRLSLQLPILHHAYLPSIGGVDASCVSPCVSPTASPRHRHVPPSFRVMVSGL

[10] = system: cortical neurons; assay: [^3H]GABA uptake in cultured cortical neurons; format: cell-based, mouse
Experimental: as §1, with “[…]). The neurons were cultured in 10% fetal calf serum and, after 48 h, cytosine arabinoside was added to a final concentration of 20 μM to prevent glial proliferation. […] The stable cell lines are under the selection pressure of blasticidin-S at 5 μg/mL.” for “198).”

[11] = target: T6, GABAB receptor; assay: biochemical

Row | SMILES | inhibition of radioligand binding at GABAA receptors ([1]; 100 μM, rat brain cortical homogenate, hydrochloride salt) | inhibition of [^3H]GABA uptake [2] | inhibition of the reuptake of GABA [3] | inhibition of [^3H]GABA uptake [4] | inhibition of [^3H]GABA uptake [5] | inhibition of [^3H]GABA uptake [6] | inhibition of [^3H]GABA uptake [7] | agonist or antagonist effect at GABAC receptors [8] | inhibition of radioligand binding at GABAB receptors [9] | inhibition of [^3H]GABA uptake [10] | IC50 ([1]; rat brain synaptic membranes) [µM] | IC50 [11] [µM]
1 | Cl.N[C@H]1C[C@@H](C(=O)O)CC1=C(F)F [(1S,3S)-3-amino-4-difluoromethylenyl-1-cyclopentanoic acid hydrochloride salt] | no inhibition of binding was observed; also recorded: nor does it bind | does not inhibit | does not inhibit the reuptake of GABA | does not inhibit | does not inhibit | does not inhibit | does not inhibit | no effect as an agonist or antagonist | no inhibition of binding was observed | does not inhibit | – | –
2 | N[C@H]1C[C@@H](C(=O)O)CC1=C(F)F [(1S,3S)-3-amino-4-difluoromethylenyl-1-cyclopentanoic acid] | – | – | – | – | – | – | – | – | – | – | > 100 | > 100
